Measurements: patent US9723834B2, “Composition containing a pyripyropene insecticide and a base” (BASF SE, priority 2010, dated 2017)

What was measured:
[1] = Storage stability of emulsion concentrates at 65° C. (chemical assay before and after storage); type: physicochemical; details: emulsion concentrate with addition of Stabilizer A, storage at 65° C. up to 2 weeks
Description: The present invention further relates to a use of the base for increasing the stability of the pesticide of formulae I or II. The stability of the pesticide may be analyzed storage for 14 days at 65° C. An increase of the stability of the pesticide may be identified by analyzing the chemical recovery after said storage.
Finally, all samples of the emulsion concentrates were stored at 65° C. up to 2 weeks, and chemical assay was determined before and after storage. The chemical stability results as well as initial formulation pH (measured at 1% formulation dilution in water at room temperature) were listed in Table 1.

[2] = test system: Tenebrio molitor L; details: WO 2004/060065; cited from earlier work
[3] = test system: Plutella xylostella L larvae; details: WO 2004/060065; cited from earlier work
[4] = test system: larvae of Helicoverpa zea; details: Applied and Environmental Microbiology (1995), 61(12), 4429-35; cited from earlier work

| SMILES | chemical stability of Insecticide A [1] | insecticidal activity against Tenebrio molitor L [2] | insecticidal activity against Plutella xylostella L larvae [3] | insecticidal activity against larvae of Helicoverpa zea [4] |
| --- | --- | --- | --- | --- |
| C[C@]1(COC(=O)C2CC2)[C@@H]2C[C@H](O)[C@@]3(C)Oc4cc(-c5cccnc5)oc(=O)c4[C@H](O)[C@@H]3[C@@]2(C)CC[C@@H]1OC(=O)C1CC1 [Insecticide A] | dramatically improved | – | – | – |
| CC(=O)OC[C@@]1(C)[C@@H]2C[C@H](OC(C)=O)[C@@]3(C)Oc4cc(-c5cccnc5)oc(=O)c4[C@H](O)[C@@H]3[C@@]2(C)CC[C@@H]1OC(C)=O [Insecticide B, Pyripyropene A] | – | has insecticidal activity | has insecticidal activity | has insecticidal activity |
